Assay results: the METLIN SMRT retention time set (Domingo-Almenara et al. 2019)

Test: gradient 5% acetonitrile 3 min, to 50% in 2 min, to 85% in 15 min, held 3 min, 100 µL/min
Settings: column: Zorbax Extend-C18 2.1 x 50 mm; eluents: water / acetonitrile, 0.1% formic acid
Summary of the method: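 Each retention time is based on an adduct peak selected computationally and verified by manual inspection. Measurements used HPLC–quadrupole time-of-flight mass spectrometry in positive and negative ionization mode on mixtures of ~100 pure standards. Chromatography ran on a Zorbax Extend-C18 column (2.1 × 50 mm, 1.8 μm) at 100 μL/min with water and acetonitrile, each containing 0.1% formic acid, and dead and dwell volumes of 40 μL and 900 μL.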

| Compound | RP-LC retention time |
| --- | --- |
| COc1ccc(-c2noc(C3CC(=O)N(c4cc(Cl)ccc4OC)C3)n2)cc1 (stereo not given) | 950 s |
| CCCNC(=O)c1cn(-c2ccc(-c3nc(C(C)(C)C)no3)cn2)cn1 | 931 s |
| COc1ccc(-c2nnc(-c3ccc(C)c(S(=O)(=O)N4CCCC4)c3)o2)cc1OC | 937 s |
| COc1cc2c(Nc3ccc(Br)cc3F)ncnc2cc1OCC1CCN(C)CC1 | 644 s |
| CCc1ccc(-c2cn3ccn(-c4ccc(F)cc4)c(=O)c3n2)cc1 | 900 s |
| CCOC(=O)N1CCC(NC(=O)c2csc(-n3cccc3)n2)CC1 | 760 s |
| O=S(=O)(c1ccc(Cl)cc1)N1CCC2(CC1)NCCN=C2NCc1ccccc1F | 730 s |
| c1ccc2c(c1)CCN(c1ncnc3c1CCC3)C2 | 650 s |
| Cc1cc2[nH]c(C(=O)Nc3ccccc3F)c(CN(C)C)c2s1 | 654 s |
| CCOC(=O)c1c(C)[nH]c(CCC(=O)NCCN2CCCC2)c1C | 554 s |
| COc1ccc(S(=O)(=O)N2CCCC(C(=O)Nc3ccccc3Br)C2)cc1C (stereo not given) | 1040 s |
| CC(C)N1C[C@H](Oc2ccccc2)[C@@H]1C1CCN(S(=O)(=O)c2cccnc2)CC1 | 669 s |
| Cc1[nH]c(C(=O)N2CCN(c3cccc(Cl)c3)CC2)c(C)c1S(=O)(=O)N1CCC(C)CC1 | 1090 s |
| Cc1ccc(Cn2cc(CCC(=O)N3CCC(C(N)=O)CC3)c3ccccc32)cc1 | 813 s |
| c1cc(-c2nc(-c3ccc4nncn4c3)no2)co1 | 679 s |
| Cc1ccc(C)c(-c2cc3c4nn(CC(=O)N(C)c5ccc(F)cc5)c(=O)n4ccn3n2)c1 | 1020 s |
| CCOc1ccccc1CNc1nccc(-n2nc(C)cc2C)n1 | 894 s |
| O=C(NCCC1CCN(C(=O)Nc2cc(F)cc(F)c2)CC1)C1CCCC1 | 860 s |
| COc1ccc(NC(=O)c2c(O)c3cccnc3n(-c3cccc(F)c3)c2=O)cc1F | 1210 s |
| O=C(O)c1cn(Cc2ccccc2F)c(=O)c2ccccc12 | 801 s |
| CCN1CCN(c2cc(C(=O)O)c3cc(NS(=O)(=O)c4cccc(F)c4)ccc3n2)CC1 | 600 s |
| CN(CCc1noc(COc2ccccc2)n1)C(=O)Nc1cccc(Br)c1 | 964 s |
| CCNS(=O)(=O)c1cccnc1Nc1ccccc1F | 948 s |
| CN(C)C(CNC(=O)C1(c2cccs2)CCCC1)c1ccsc1 (stereo not given) | 596 s |
| O=c1n(Cc2ccccc2)nc2n1CCN(S(=O)(=O)c1ccc3c(c1)OCCO3)CC2 | 818 s |

| Compound | RP-LC retention time |
| --- | --- |
| CCN1C(=O)Cc2ccccc2C1C(=O)NCc1cccs1 (stereo not given) | 716 s |
| CCN1CCC2(CC1)OC(=O)C(C)=C2C(=O)Nc1ccc(Br)cc1F | 650 s |
| Cc1c(C(=O)N2CCSCC2)cnn1-c1ccc(-c2nc(C(C)(C)C)no2)cn1 | 1070 s |
| Cc1cc(C(=O)NCCOc2ccc3nnc(-c4ccccc4)n3n2)c(C)o1 | 698 s |
| CCNC(=O)N1CC(n2cc(C(=O)NCCC3=CCCCC3)nn2)C1 | 721 s |
| CCC(C(=O)NC(C)C(=O)N1CCCCC1)n1c2ccccc2c2cnn(C)c(=O)c21 (stereo not given) | 670 s |
| Cc1cc2nc(C(=O)Nc3cc(F)ccc3C)cc(C)n2n1 | 1050 s |
| CCCN1CCN(C(=O)Cc2ccc3nc(NC(C)=O)sc3c2)CC1 | 578 s |
| Cc1cc(NC(=O)c2c[nH]c3ncccc23)ccc1F | 739 s |
| CN(Cc1ccccc1)Cc1nc(-c2ccc(N3CCSCC3)nc2)no1 | 837 s |
| COCCN(Cc1ccco1)C(=O)Cn1nc(Cc2cccnc2)c2ccccc2c1=O | 613 s |
| CCCN1C(=O)COc2cc(-c3noc(C(=O)N4CCN(c5ccc(Cl)cc5)CC4)n3)ccc21 | 1190 s |
| Cc1cccc(-c2noc(-c3nn(CC(=O)N4CCCC4)c4ccccc34)n2)c1 | 1080 s |
| Cc1ccc(N2C(=O)C3N=NN(Cc4nc(-c5ccc(OC(C)C)cc5)no4)C3C2=O)cc1 (stereo not given) | 1110 s |
| N#Cc1ccccc1Cn1cnc2nc3c(cc2c1=O)CCCC3 | 733 s |
| CCCn1cc(CCNC(=O)Nc2cc(Cl)ccc2Cl)c2cccnc21 | 963 s |
| O=C(Cn1cccc(-c2nc(-c3ccccc3)no2)c1=O)Nc1ccc(Br)cc1F | 951 s |
| Cc1cnc(-c2ccncc2)n1CC1CCN(S(=O)(=O)c2ccc3c(c2)OCCO3)C1 (stereo not given) | 626 s |
| Cn1nc(C2CCN(C(=O)C3CCCO3)CC2)c2c1CCOC2 (stereo not given) | 586 s |
| Nc1cc(C2CCN(C(=O)Nc3cc(F)c(F)c(F)c3)CC2)no1 | 765 s |
| CCOC(=O)C1CCN(c2nc(-c3ccc(Cl)cc3)nc3ccccc23)CC1 | 936 s |
| Cc1ccc(NC(=O)N2CCC(n3cnnc3C3CC3)C2)cc1 (stereo not given) | 635 s |
| CC(C)NC(=O)N(C)CCc1noc(COc2ccc(Cl)cc2)n1 | 841 s |
| Cc1c2cnccc2c(C)c2c1c1ccccc1n2CCOC(=O)c1ccccc1 | 751 s |
| CCn1cnc(S(=O)(=O)N2CCCC(C(=O)NCc3cccc(C)c3)C2)c1 (stereo not given) | 747 s |

Other lines, results leading:

| RP-LC retention time | Compound |
| --- | --- |
| 890 s | Cc1cc(-c2cc(S(=O)(=O)NCC(C)c3ccccc3)c(C)s2)n[nH]1 (stereo not given) |
| 1060 s | C=Cc1ccc(Cn2nc3ccc(S(=O)(=O)N4CCC(C)CC4)cn3c2=O)cc1 |
| 867 s | CCOC(=O)c1csc(NC(=O)Nc2cccc(Cl)c2)n1 |
| 597 s | O=C(NCC1CCCO1)c1nc(-c2ccnc(N3CCCC3)c2)no1 (stereo not given) |
| 653 s | O=C(CSc1ccc(-n2cccn2)nn1)NCc1ccco1 |
| 768 s | COCc1nc2cccnc2n1C1CCN(C(=O)Nc2cccc(Br)c2)CC1 |
| 574 s | CCCN1CCN(C(=O)C2CCN(S(=O)(=O)c3cc(C(=O)N4CCCC4)n(C)c3)CC2)CC1 |
| 1030 s | COc1cccc(CCc2nc(-c3ccc4oc(C)nc4c3)no2)c1 |
| 826 s | CCc1nnc(-c2ccc3ccn(CC(=O)Nc4ccccc4C)c3c2)o1 |
| 1030 s | Cc1cccc(-c2noc(Cc3nnc(-c4ccccc4)o3)n2)c1 |
| 560 s | CN(C)CCNC(=O)c1nc(N2CCSCC2)c2cnn(C)c2n1 |
| 1080 s | CCN1CCCCc2cc(C(=O)NC(C)(C)C)sc21 |
| 992 s | O=S(=O)(c1cccs1)N1CCc2nc(-c3ccccc3)ncc2C1 |
| 771 s | Cc1cc(SCC(=O)N2CCCc3ccccc32)ncn1 |
| 1140 s | COc1ccc(-c2nc(C3CC(=O)N(c4ccc(Cl)cc4)C3)no2)c(C)c1 (stereo not given) |
| 911 s | Cc1cc(C)cc(C(=O)Nc2cc(-c3ccccn3)no2)c1 |
| 911 s | CCc1cccc(NC(=O)C2CCCN(S(=O)(=O)c3c[nH]c(C(=O)N4CCCCCC4)c3)C2)c1 (stereo not given) |
| 628 s | O=C(NC1CCN(C(=O)c2cn(-c3ccc(Cl)cc3)nn2)CC1)c1cccs1 |
| 684 s | Cn1cc(C(CNC(=O)Nc2ccc3c(c2)OCO3)c2cccnc2)c2ccccc21 (stereo not given) |
| 689 s | Cc1nc(-c2noc(-c3ccncc3)n2)cn1CC(=O)N1CCN(c2ccc(F)cc2)CC1 |

| RP-LC retention time | Compound |
| --- | --- |
| 646 s | CCN1CCN(c2cc(C)c3cc(NC(=O)C(c4ccccc4)C4CCCC4)ccc3n2)CC1 (stereo not given) |
| 1000 s | CCCN1C(=O)COc2ccc(-c3csc(NC(=O)CC(C)C)n3)cc21 |
| 858 s | Cc1cccc(NC(=O)c2[nH]c(C)c(S(=O)(=O)N3CCCC3)c2C)c1C |
| 561 s | CCn1cc(CCNC(=O)NC)c2cccnc21 |
| 1290 s | COc1ccc(N2CCN(c3ncccc3-c3nc(-c4ccccc4)no3)CC2)cc1 |
| 1040 s | Cc1ccc(CNC(=O)C2(C)CCN(S(=O)(=O)c3ccc(C)cc3C)CC2)cc1 |
| 919 s | CCCn1ccc2sc(C)c(C(=O)NCc3ccc(SC)cc3)c2c1=O |
| 704 s | CCOc1ccc(NC(=O)c2cnc3c(c2)c(=O)n(C)c(=O)n3C)cc1 |
| 826 s | CCN1C(=O)c2cccnc2Sc2cc(NC(=O)c3cccc(OC)c3)ccc21 |
| 752 s | CCc1noc(-c2ccc(-n3ncc(C(=O)N4CCOCC4)c3C)nc2)n1 |
| 682 s | CCCn1nc(-n2cnnc2)c(NC(=O)c2cc(OC)cc(OC)c2)c1C |
| 665 s | Cc1ccccc1/C=C/C1=NCCN1 |
| 956 s | O=C(Nc1cccc(F)c1)c1cc(C2CC2)on1 |
| 1030 s | COC(=O)c1ccccc1NC(=O)c1cnc2c(c1)c(=O)n(C)c(=O)n2-c1ccccc1 |
| 924 s | O=C(Cn1nc2c3cc(-c4ccc(Cl)cc4)nn3ccn2c1=O)N1CCCCC1 |
| 690 s | CCOC(=O)c1nc(NCCCN2CCC(Cc3ccccc3)CC2)c2ccccc2n1 |
| 1000 s | Cc1ccc(N2CCN(c3nccn4c(=O)n(CC(=O)Nc5ccc(C)c(C)c5)nc34)CC2)cc1 |
| 668 s | CCn1c(=O)c(SCC(=O)NCC2CCN(Cc3ccc(C)cc3)C2)nc2ccccc21 (stereo not given) |
| 687 s | CCOC(=O)C1=C(CN2CCC(c3ccccc3)C2)NC(=O)NC1c1ccc(F)cc1 (stereo not given) |
| 690 s | CC(NC(=O)C1CCN(S(=O)(=O)c2ccc(C#N)cc2)CC1)C(=O)N1CCCc2ccccc21 (stereo not given) |
